# Structures can show the parent of a compound that is named as a salt.
# Experiments:
# [1] = test system: CCI rats (chronic constriction of the sciatic nerve of Wistar rats); conditions: for efficacy for short-term/acute and long-term/chronic neuropathic pain: intravenous administration
# K^+ currents from sdTGNs = experiment: Whole-cell voltage-clamp of K+ currents in small diameter trigeminal ganglion neurons; conditions: dose dependent manner
# [2] = test system: K^+ currents recorded from a small diameter neuron isolated from a dorsal-root ganglion of the 'affected' side of a CCI rat; experiment: Voltage dependence of steady-state inactivation of K+ currents, sdDRG neuron of CCI rat; conditions: CCI rat 28 days after surgery
# hKv1.3 = target: T1, hKv1.3 (Homo sapiens, UniProt P22001); experiment: Whole-cell voltage-clamp on cell lines expressing Kv1.x channels (nitenin); format: cell-based
# T1 construct: expressed in transfected cells
# Description: In the context of this disclosure, “affinity” relates to the effect on the activity of such channel. Affinity can be measured by voltage clamp recordings of currents evoked by cells that express solely that given channel.
# Voltage-clamp recordings under the whole-cell configurations were/are used to measure the ‘amount of inhibition’ of the whole-cell current evoked by a given channel expressed in non-excitable cell lines. Dose responses are obtained by measuring such inhibitions per each concentration. Voltage-activated K+ currents were evoked from mammalian cell lines expressing Kv1.1, Kv1.2, Kv1.3, Kv1.4, Kv1.5, kv1.6 or kv1.7 using standard voltage protocols (Schmitz et al., 2005; Vennekamp et al.).
# T1 sequence (P22001 whole entry): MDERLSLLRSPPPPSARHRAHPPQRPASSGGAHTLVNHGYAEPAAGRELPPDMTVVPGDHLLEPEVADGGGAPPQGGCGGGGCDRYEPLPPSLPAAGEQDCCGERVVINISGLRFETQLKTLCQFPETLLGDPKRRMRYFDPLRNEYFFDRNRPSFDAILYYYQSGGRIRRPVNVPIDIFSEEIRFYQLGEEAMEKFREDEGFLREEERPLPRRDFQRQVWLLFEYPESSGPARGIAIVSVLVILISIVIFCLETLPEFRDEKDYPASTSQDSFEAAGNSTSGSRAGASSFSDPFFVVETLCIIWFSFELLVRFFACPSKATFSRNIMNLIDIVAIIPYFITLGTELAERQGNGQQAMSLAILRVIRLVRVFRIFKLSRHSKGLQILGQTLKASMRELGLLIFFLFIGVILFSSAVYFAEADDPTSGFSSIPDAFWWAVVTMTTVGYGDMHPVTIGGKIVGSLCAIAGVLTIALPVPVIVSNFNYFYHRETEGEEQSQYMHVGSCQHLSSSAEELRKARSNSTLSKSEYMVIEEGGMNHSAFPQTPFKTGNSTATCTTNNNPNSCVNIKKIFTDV
Compound,efficacy for short-term/acute and long-term/chronic neuropathic pain [1],effect on K+ currents from sdTGNs (K^+ currents from sdTGNs),"Vh1 (voltage of half maximum current, component 1) of steady-state inactivation ([2]; nitenin 0.29 μM, control Vh1=−73.3 mV) [mV]","Vh2 (voltage of half maximum current, component 2) of steady-state inactivation ([2]; nitenin 0.29 μM, control Vh2=−26.3 mV) [mV]","mechanical sensitivity of the ipsilateral leg at maximum effect ([1]; nitenin IV, estimated plasma concentration 1 μg/ml, 26 days after surgery, Von Frey)",IC50 (hKv1.3) [nM],"Vh1 (voltage of half maximum current, component 1) of steady-state inactivation ([2]; PAP-1 2 nM, control Vh1=−90.1 mV) [mV]","Vh2 (voltage of half maximum current, component 2) of steady-state inactivation ([2]; PAP-1 2 nM, control Vh2=−27.8 mV) [mV]","Vh1 (voltage of half maximum current, component 1) of steady-state inactivation ([2]; AM92016 hidrochloride 40 nM, control Vh1=−71.3 mV) [mV]","Vh2 (voltage of half maximum current, component 2) of steady-state inactivation ([2]; AM92016 hidrochloride 40 nM, control Vh2=−28.2 mV) [mV]"
"O=c1ccc2c(OCCCCc3ccccc3)c3ccoc3cc2o1 [PSORA-4, 4-(4-Phenylbutoxy)-7H-furo[3,2-g][1]benzopyran-7-one]",effective,inhibit the K^+ currents,–,–,–,–,–,–,–,–
C/C(=C\C1C/C(=C/CCc2ccoc2)C(=O)O1)CCCc1ccoc1 (stereo not shown) [nitenin],effective,inhibit the K^+ currents,−95.3,−47.0,in some instances similar to those obtained during baseline,~190,–,–,–,–
"O=c1ccc2c(OCCCCOc3ccccc3)c3ccoc3cc2o1 [PAP-1, 5-(4-Phenoxybutoxy)psoralen]",effective,inhibit the K^+ currents,–,–,–,–,−101.7,−32.6,–,–
CN(CCc1ccc(Cl)c(Cl)c1)CC(O)COc1ccc(NS(C)(=O)=O)cc1 (stereo not shown) [AM92016 hydrochloride],effective,inhibit the K^+ currents,–,–,–,–,–,–,−93.63,−33.6

# Source: patent US12697321B2, “Kv1.3 antagonists for use in the treatment of chronic and acute pain” (SEA4US—BIOTECNOLOGIA E RECURSOS MARINHOS, LDA., priority 2019, dated 2026)
